Experimental data from US11672868B2, “Bicyclic peptide ligands specific for MT1-MMP” (priority 2014, dated 2023).
Numbered stars: 1 amine (or outer) side, 2 acyl side, 3 side chain; on linkers, the order of the positions; unused ones are H or OH. Bridge positions count the residues as written; N and C are the ends. Square brackets hold non-standard residues; d marks the D form. Peptide text beside a SMILES is read from it. * marks the point of attachment. 5FAM = O=C1OC2(c3ccc(O)cc3Oc3cc(O)ccc32)c2ccc(C(=O)*)cc21; 1Nal = N[C@@H](Cc1cccc2ccccc12)C(=O)O; TBMB = c1c(C[*:1])cc(C[*:3])cc1C[*:2]; Tle = CC(C)(C)[C@H](N)C(=O)O; βAla = NCCC(=O)O; Sar = CNCC(=O)O

Assays:
Assay in all cases: FP selectivity against related metalloproteinases
Format in all cases: binding
Conditions in all cases: Table 14
MMP-1 = molecular target: T1, MMP-1 (Homo sapiens, UniProt P03956)
T1 sequence (P03956 100-469): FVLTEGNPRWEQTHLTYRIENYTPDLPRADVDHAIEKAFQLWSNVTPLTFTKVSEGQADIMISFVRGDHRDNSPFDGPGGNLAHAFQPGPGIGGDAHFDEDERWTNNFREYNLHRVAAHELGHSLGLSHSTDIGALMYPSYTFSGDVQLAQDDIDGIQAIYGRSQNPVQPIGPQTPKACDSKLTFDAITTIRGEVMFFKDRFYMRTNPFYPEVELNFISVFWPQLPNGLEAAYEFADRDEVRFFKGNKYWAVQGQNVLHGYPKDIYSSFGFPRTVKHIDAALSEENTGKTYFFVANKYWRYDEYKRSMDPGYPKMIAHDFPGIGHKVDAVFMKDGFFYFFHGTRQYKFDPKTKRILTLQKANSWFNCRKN
Description: (§1) The N-terminally fluoresceinated derivative of 17-69-07-N241 (termed 17-69-07-N258, of the sequence: Fluorescein-(bAla)-Sar10-A-(17-69-07) D-Ala1 1Nal4 D-Ala5 tBuGly11) was tested against related human metalloproteinases.

MMP-2 = molecular target: T2, MMP-2 (Homo sapiens, UniProt P08253)
T2 sequence (P08253 110-660): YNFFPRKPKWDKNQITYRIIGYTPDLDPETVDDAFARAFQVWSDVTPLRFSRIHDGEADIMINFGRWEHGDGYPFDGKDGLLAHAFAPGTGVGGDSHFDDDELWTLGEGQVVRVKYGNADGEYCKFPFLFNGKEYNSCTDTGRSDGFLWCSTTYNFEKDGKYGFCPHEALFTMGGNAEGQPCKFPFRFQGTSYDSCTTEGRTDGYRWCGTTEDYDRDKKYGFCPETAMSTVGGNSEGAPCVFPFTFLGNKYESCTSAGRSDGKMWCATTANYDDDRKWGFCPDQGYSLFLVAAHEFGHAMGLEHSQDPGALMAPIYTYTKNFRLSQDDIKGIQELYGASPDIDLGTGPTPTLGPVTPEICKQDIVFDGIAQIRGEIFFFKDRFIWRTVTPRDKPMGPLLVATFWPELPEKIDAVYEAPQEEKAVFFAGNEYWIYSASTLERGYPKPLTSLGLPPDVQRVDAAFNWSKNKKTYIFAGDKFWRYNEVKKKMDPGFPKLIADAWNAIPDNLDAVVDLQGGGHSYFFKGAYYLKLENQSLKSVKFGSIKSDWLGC
Description: as §1

MMP-16 = MMP-16 (Homo sapiens, UniProt P51512)
MMP-16, sequence (P51512 120-607): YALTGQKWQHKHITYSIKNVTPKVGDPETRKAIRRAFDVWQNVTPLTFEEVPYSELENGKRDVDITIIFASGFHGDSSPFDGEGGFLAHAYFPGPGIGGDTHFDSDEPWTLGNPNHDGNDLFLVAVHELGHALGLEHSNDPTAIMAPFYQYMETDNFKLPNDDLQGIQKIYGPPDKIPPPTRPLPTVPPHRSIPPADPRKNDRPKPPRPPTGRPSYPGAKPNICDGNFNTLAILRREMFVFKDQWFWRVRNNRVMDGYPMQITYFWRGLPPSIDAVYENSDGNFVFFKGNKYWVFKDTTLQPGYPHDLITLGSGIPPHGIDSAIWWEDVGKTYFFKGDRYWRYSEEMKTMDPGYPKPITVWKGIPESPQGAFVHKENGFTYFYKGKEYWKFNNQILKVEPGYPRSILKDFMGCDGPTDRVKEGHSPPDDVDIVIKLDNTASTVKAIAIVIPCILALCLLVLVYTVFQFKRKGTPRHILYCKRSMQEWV
Description: as §1

MMP-15 = MMP-15 (Homo sapiens, UniProt P51511)
MMP-15, sequence (P51511 132-669): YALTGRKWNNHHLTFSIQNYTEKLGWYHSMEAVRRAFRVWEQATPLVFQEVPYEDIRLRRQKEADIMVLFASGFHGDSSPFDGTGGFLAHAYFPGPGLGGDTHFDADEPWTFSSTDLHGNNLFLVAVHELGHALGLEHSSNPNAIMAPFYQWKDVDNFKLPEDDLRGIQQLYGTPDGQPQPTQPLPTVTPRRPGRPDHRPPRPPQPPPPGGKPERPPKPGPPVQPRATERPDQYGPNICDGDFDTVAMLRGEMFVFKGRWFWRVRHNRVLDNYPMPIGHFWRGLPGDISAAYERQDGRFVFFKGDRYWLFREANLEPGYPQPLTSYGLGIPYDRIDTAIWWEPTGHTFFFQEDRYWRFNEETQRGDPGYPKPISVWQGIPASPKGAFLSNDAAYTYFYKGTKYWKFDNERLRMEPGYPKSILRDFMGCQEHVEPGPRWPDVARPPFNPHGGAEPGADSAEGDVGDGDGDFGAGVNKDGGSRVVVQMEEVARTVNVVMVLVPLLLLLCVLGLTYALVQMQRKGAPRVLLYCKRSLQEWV
Description: as §1

Kd (MMP-1): > 1000 nM
Kd (MMP-2): > 1000 nM
Kd (MMP-16): > 1000 nM
Kd (MMP-15): > 1000 nM
Compound: C[C@H](NC(=O)CN(C)C(=O)CN(C)C(=O)CN(C)C(=O)CN(C)C(=O)CN(C)C(=O)CN(C)C(=O)CN(C)C(=O)CN(C)C(=O)CN(C)C(=O)CN(C)C(=O)CCNC(=O)c1ccc2c(c1)C(=O)OC21c2ccc(O)cc2Oc2cc(O)ccc21)C(=O)N[C@H]1CSCc2cc3cc(c2)CSC[C@H](NC(=O)[C@@H](C)NC(=O)[C@H](Cc2cccc4ccccc24)NC(=O)[C@H](CCC(=O)O)NC(=O)[C@H](CC(N)=O)NC(=O)[C@@H](C)NC1=O)C(=O)N[C@@H](CCC(=O)O)C(=O)N[C@@H](CC(=O)O)C(=O)N[C@@H](Cc1ccccc1)C(=O)N[C@@H](Cc1ccc(O)cc1)C(=O)N[C@@H](CC(=O)O)C(=O)N[C@@H](C(C)(C)C)C(=O)N[C@H](C(N)=O)CSC3 [17-69-07-N258, Fluorescein-(bAla)-Sar10-A-(17-69-07) D-Ala1 1Nal4 D-Ala5 tBuGly11] ({5FAM-βAla}-[Sar][Sar][Sar][Sar][Sar][Sar][Sar][Sar][Sar][Sar]AC[dA]NE[1Nal][dA]CEDFYD[Tle]C-NH2; linker 12-18-25 via TBMB)
